Results from patent US5811512A, “Non-peptide peptidomimetics and related cyclic hexapeptides” (The Trustees of the University of Pennsylvania, priority 1996, dated 1998).
Where a SMILES comes first, the peptide text is derived from it. [ ]: non-standard residue; d: D form. Phe(4-F) = N[C@@H](Cc1ccc(F)cc1)C(=O)O; 1Nal = N[C@@H](Cc1cccc2ccccc12)C(=O)O; d(hPhe) = N[C@H](CCc1ccccc1)C(=O)O; Cha = N[C@@H](CC1CCCCC1)C(=O)O

How the values were obtained:
[1] = biological target: T1, human neurokinin-1 receptor (NK1R) (Homo sapiens, UniProt P25103); assay: Substance P receptor binding: 125I-substance P displacement from human NK1R expressed in COS cells; conditions: for IC50: 125I-SP, COS cells expressing human NK1R, read-out: IC50 (concentration required to inhibit the binding of substance P to the human neurokinin-1 receptor by 50%)
T1 construct: the cDNA for the human NK1R was cloned into the expression vector pCDM9; expressed in transfected cells; host or cells: COS cells (transient, electroporation, vector pCDM9)
Method: The affinity of a variety of compounds for the substance P receptor was determined employing the following procedure.
A. Receptor Expression in COS
To express the cloned human neurokinin-1 receptor (NK1R) transiently in COS, the cDNA for the human NK1R was cloned into the expression vector pCDM9 which was derived from pCDM8 (Invitrogen) by inserting the ampicillin resistance gene (nucleotide 1973 to 2964 from Bluescript SK+) into the Sac II site. Transfection of 20 μg of the plasmid DNA into 10 million COS cells was achieved by electroporation in 800 μl of the transfection buffer ([…], 1.2 mM MgCl2, 2.4 mM K2 HPO4, 0.6 mM KH2 PO4, 10 nM glucose, 10 mM HEPES pH 7.4) at 260V and 950 μF using the IBI Genezapper (IBI, New Haven, Conn.). The cells were incubated in 10% fetal calf serum, 2 mM glutamine, 100 U/ml penicillin-streptomycin, and 90% DMEM media (Gibco, Grand Island, N.Y.) in 5% CO2 at 37° C. for three days before the binding assay.
B. Assay Protocol using COS
The binding assay of human NK1R expressed in COS cells is based on the use of ^125 I-substance P (^125 I-SP, from DuPont, Boston, Mass.) as a radioactively labeled ligand which competes with unlabeled substance P or any other ligand for binding to the human NK1R. Monolayer cell cultures of COS were dissociated by the non-enzymatic solution (Specialty Media, Lavallette, N.J.) and resuspended in appropriate volume of the bind buffer (50 mM Tris pH 7.5, 5 mM MnCl2, 150 mM NaCl, 0.04 mg/ml bacitracin, 0.004 mg/ml leupeptin, 0.2 mg/ml BSA, 0.01 mM phosphoramidon) such that 200 μl of the cell suspension would give rise to about 10,000 cpm of specific ^125 I-SP binding (approximately 50,000 to 200,000 cells). In the binding assay, 200 μl of cells were added to a tube containing 20 μl of 1.5 to 2.5 nM of ^125 I-SP and 20 μl of unlabeled substance P or any other test compound. The tubes were incubated at 4° C. or at room temperature for 1 hour with gentle shaking. The bound radioactivity was separated from unbound radioactivity by GF/C filter (Brandel, Gaithersburg, Md.) which was pre-wetted with 0.1 polyethylenimine. The filter was washed with 3 ml of wash buffer (50 Tris pH 7.5, 5 mM MnCl21 150 mM NaCl) three times and its radioactivity was determined by gamma counter.
A variety of compounds were tested according to the COS cell procedure. The concentration of compound required to inhibit the binding of substance P to the human neurokinin-1 receptor by 50% was measured.

SRIF receptor = SRIF receptor affinity: displacement of 125I-CGP-23996 from AtT-20 cells; format: binding
Method: The affinity of a variety of compounds for the SRIF receptor was determined by studying the displacement of ^125 I-CGP-23996 from AtT-20 cells using the method generally in accordance with Raynor and Reisine, Journal of Pharmacology and Experimental Therapeutics, 1989, 251;2, 510.

β-adrenergic receptor = assay: Radioligand displacement from AtT-20 and brain cells, β-adrenergic receptor; format: binding
[2] = displacement of 125I-CGP-23996, AtT-20 cells

T1 sequence (P25103 whole entry): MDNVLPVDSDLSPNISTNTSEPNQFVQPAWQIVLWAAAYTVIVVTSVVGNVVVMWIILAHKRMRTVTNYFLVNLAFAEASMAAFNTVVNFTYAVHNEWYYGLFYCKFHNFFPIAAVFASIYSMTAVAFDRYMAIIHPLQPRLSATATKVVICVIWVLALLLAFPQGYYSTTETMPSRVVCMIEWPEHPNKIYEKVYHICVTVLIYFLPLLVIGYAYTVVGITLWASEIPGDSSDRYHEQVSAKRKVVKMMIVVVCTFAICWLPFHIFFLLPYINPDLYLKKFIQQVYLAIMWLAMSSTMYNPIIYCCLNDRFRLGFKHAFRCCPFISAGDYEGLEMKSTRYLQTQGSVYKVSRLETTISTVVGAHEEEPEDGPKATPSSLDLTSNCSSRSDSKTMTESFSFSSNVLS

Compound	IC50 (HIV-1 protease) [nM]	other results
CC(C)C[C@@H]1NC(=O)[C@@H](Cc2c[nH]c3ccccc23)NC(=O)[C@H](Cc2ccccc2)NC(=O)[C@@H]2CCCN2C(=O)[C@H](Cc2ccccc2)NC(=O)[C@H]([C@@H](C)O)NC1=O [(17a), Cyclo (Phe-D-Trp-Leu-Thr-Phe-Pro)] (cyclo(FPF[dW]LT))	3420	–
C[C@@H](O)[C@@H]1NC(=O)[C@H](Cc2ccccc2)NC(=O)[C@@H](Cc2c[nH]c3ccccc23)NC(=O)[C@H](Cc2ccccc2)NC(=O)[C@@H]2CCCN2C(=O)[C@H](Cc2ccccc2)NC1=O [(17b), Cyclo (Phe-D-Trp-Phe-Thr-Phe-Pro)] (cyclo(FPF[dW]FT))	330	–
C[C@@H](O)[C@@H]1NC(=O)[C@H](Cc2ccc(O)cc2)NC(=O)[C@@H](Cc2c[nH]c3ccccc23)NC(=O)[C@H](Cc2ccccc2)NC(=O)[C@@H]2CCCN2C(=O)[C@H](Cc2ccccc2)NC1=O [(17c), Cyclo (Phe-D-Trp-Tyr-Thr-Phe-Pro)] (cyclo(FPF[dW]YT))	2150	–
C[C@@H]1NC(=O)[C@@H](Cc2c[nH]c3ccccc23)NC(=O)[C@H](Cc2ccccc2)NC(=O)[C@@H]2CCCN2C(=O)[C@H](Cc2ccccc2)NC(=O)[C@H]([C@@H](C)O)NC1=O [(17d), Cyclo (Phe-D-Trp-Ala-Thr-Phe-Pro)] (cyclo(ATFPF[dW]))	9000	–
COc1ccc(C[C@@H]2NC(=O)[C@@H](Cc3c[nH]c4ccccc34)NC(=O)[C@H](Cc3ccccc3)NC(=O)[C@@H]3CCCN3C(=O)[C@H](Cc3ccccc3)NC(=O)[C@H]([C@@H](C)O)NC2=O)cc1 [(17e), Cyclo (Phe-D-Trp-p-MeO-Phe-Thr-Phe-Pro)] (cyclo(FPF[dW]Y(Me)T))	130	–
C[C@@H](O)[C@@H]1NC(=O)[C@H](Cc2ccc(F)cc2)NC(=O)[C@@H](Cc2c[nH]c3ccccc23)NC(=O)[C@H](Cc2ccccc2)NC(=O)[C@@H]2CCCN2C(=O)[C@H](Cc2ccccc2)NC1=O [(17f), Cyclo (Phe-D-Trp-p-F-Phe-Thr-Phe-Pro)] (cyclo(FPF[dW][Phe(4-F)]T))	37	–
C[C@@H](O)[C@@H]1NC(=O)[C@H](Cc2ccccc2)NC(=O)[C@@H](Cc2c[nH]c3ccccc23)NC(=O)[C@H](CO)NC(=O)[C@@H]2CCCN2C(=O)[C@H](Cc2ccccc2)NC1=O [(18a), Cyclo (Ser-D-Trp-Phe-Thr-Phe-Pro)] (cyclo(FPS[dW]FT))	2210	–
C[C@@H](O)[C@@H]1NC(=O)[C@H](Cc2ccccc2)NC(=O)[C@@H](Cc2c[nH]c3ccccc23)NC(=O)[C@H](CC(=O)O)NC(=O)[C@@H]2CCCN2C(=O)[C@H](Cc2ccccc2)NC1=O [(18b), Cyclo (Asp-D-Trp-Phe-Thr-Phe-Pro)] (cyclo(D[dW]FTFP))	4020	–
C[C@@H](O)[C@@H]1NC(=O)[C@H](Cc2ccccc2)NC(=O)[C@@H](Cc2c[nH]c3ccccc23)NC(=O)[C@H]2CCCN2C(=O)[C@@H]2CCCN2C(=O)[C@H](Cc2ccccc2)NC1=O [(18c), Cyclo (D-Pro-D-Trp-Phe-Thr-Phe-Pro)] (cyclo(FP[dP][dW]FT))	51	–
C[C@@H]1NC(=O)[C@@H]2CCCN2C(=O)[C@H](Cc2ccccc2)NC(=O)[C@H]([C@@H](C)O)NC(=O)[C@H](Cc2ccccc2)NC(=O)[C@@H](Cc2c[nH]c3ccccc23)NC1=O [(18d), Cyclo (Ala-D-Trp-Phe-Thr-Phe-Pro)] (cyclo(A[dW]FTFP))	2200	–
C[C@@H](O)[C@@H]1NC(=O)[C@H](Cc2ccccc2)NC(=O)[C@@H](Cc2c[nH]c3ccccc23)NC(=O)[C@H](Cc2c[nH]c3ccccc23)NC(=O)[C@@H]2CCCN2C(=O)[C@H](Cc2ccccc2)NC1=O [(18e), Cyclo (Trp-D-Trp-Phe-Thr-Phe-Pro)] (cyclo(FPW[dW]FT))	73	–
C[C@@H](O)[C@@H]1NC(=O)[C@H](Cc2ccccc2)NC(=O)[C@@H](Cc2c[nH]c3ccccc23)NC(=O)[C@@H](Cc2ccccc2)NC(=O)[C@@H]2CCCN2C(=O)[C@H](Cc2ccccc2)NC1=O [(18f), Cyclo (D-Phe-D-Trp-Phe-Thr-Phe-Pro)] (cyclo(FP[dF][dW]FT))	1120	–
C[C@@H](O)[C@@H]1NC(=O)[C@H](Cc2ccccc2)NC(=O)[C@@H](Cc2c[nH]c3ccccc23)NC(=O)[C@@H](CCc2ccccc2)NC(=O)[C@@H]2CCCN2C(=O)[C@H](Cc2ccccc2)NC1=O [(18g), Cyclo (D-Homo-Phe-D-Trp-Phe-Thr-Phe-Pro)] (cyclo(FP[d(hPhe)][dW]FT))	161	–
C[C@@H](O)[C@@H]1NC(=O)[C@H](Cc2ccccc2)NC(=O)[C@@H](Cc2c[nH]c3ccccc23)NC(=O)[C@H](CC2CCCCC2)NC(=O)[C@@H]2CCCN2C(=O)[C@H](Cc2ccccc2)NC1=O [(18h), Cyclo (Cha-D-Trp-Phe-Thr-Phe-Pro)] (cyclo([Cha][dW]FTFP))	700	–
C[C@@H](O)[C@@H]1NC(=O)[C@H](Cc2ccccc2)NC(=O)[C@@H](Cc2c[nH]c3ccccc23)NC(=O)[C@H](Cc2cccc3ccccc23)NC(=O)[C@@H]2CCCN2C(=O)[C@H](Cc2ccccc2)NC1=O [(18i), Cyclo (Nal-D-Trp-Phe-Thr-Phe-Pro)] (cyclo([1Nal][dW]FTFP))	22	–
CC(=O)NCCCCCOC[C@H]1O[C@@H](OCCc2cn(S(=O)(=O)c3ccccc3)c3ccccc23)[C@H](OCc2ccccc2)[C@@H](OCc2ccccc2)[C@@H]1OCc1ccccc1 [Compound 7, 2-(1-Phenylsulfonyl-indol-3yl)ethyl-6-O-(5-acetamidopentyl)-2,3,4-tri-O-benzyl-β-D-glucopyranoside]	–	IC50 [1]: 56 nM
CO[C@@H]1O[C@H](COCCCCCN)[C@@H](OCc2ccccc2)[C@H](OCc2ccccc2)[C@H]1OCc1ccccc1 [Compound 8, Methyl 6-O-(5-aminopentyl)-2,3,4-tri-O-benzyl-β-D-glucopyranoside]	–	binding to substance P receptor [1]: is bound by; IC50 [1]: 840 nM; binding to SRIF receptor (SRIF receptor): is bound by; IC50 (SRIF receptor; [2]): 40000 nM; binding to β-adrenergic receptor (β-adrenergic receptor): does not bind; Binding Inhibition (β-adrenergic receptor; 125I-CYP (0.1 nM), AtT-20): 0%
OC[C@@H]1C[C@H](OCc2ccccc2)[C@@H](OCc2ccccc2)[C@H](OCCc2c[nH]c3ccccc23)O1 [Compound 11, 2-Indol-3-yl-ethyl-2,3,-di-O-benzyl-4-deoxy-β-D-glucopyranoside]	–	IC50 [1]: 400 nM
CO[C@@H]1O[C@H](COCCCCCNC(=O)C(F)(F)F)[C@@H](OCc2ccccc2)[C@H](OCc2ccccc2)[C@H]1OCc1ccccc1 [Compound 13, Methyl 2,3,4-tri-O-benzyl-6-O-(N-trifluoroacetyl-5-aminopentyl)-β-D-glucopyranoside]	–	IC50 [1]: 1000 nM; IC50 (affinity for the SRIF receptor) (SRIF receptor; [2]): does not bind
C[C@@H](O)[C@@H]1NC(=O)[C@H](Cc2ccc(F)cc2)NC(=O)[C@@H](Cc2c[nH]c3ccccc23)NC(=O)[C@H](Cc2cccc3ccccc23)NC(=O)[C@@H]2CCCN2C(=O)[C@H](Cc2ccccc2)NC1=O [Compound (19), Cyclo (Nal-D-Trp-p-F-Phe-Thr-Phe-Pro)] (cyclo([1Nal][dW][Phe(4-F)]TFP))	2.8	–
C[C@@H](O)[C@@H]1NC(=O)[C@H](CCCCN)NC(=O)[C@@H](Cc2c[nH]c3ccccc23)NC(=O)[C@H](Cc2ccccc2)NC(=O)[C@@H]2CCCN2C(=O)[C@H](Cc2ccccc2)NC1=O [L-363,301, reference compound] (cyclo(PF[dW]KTF))	–	IC50 (SRIF receptor; [2]): 18.7 nM
CC(C)[C@@H]1NC(=O)[C@H](CCCCN)NC(=O)[C@@H](Cc2c[nH]c3ccccc23)NC(=O)[C@H](Cc2ccc(O)cc2)NC(=O)[C@H](C)N(C)C(=O)[C@H](Cc2ccccc2)NC1=O [MK 678, reference compound]	–	IC50 (SRIF receptor; [2]): 60 nM
